Tests used:
HUVECs = assay: Cord formation assay, HUVEC-eGFP co-cultured with human dermal fibroblasts; assay type: cell-based; details: for effect on VEGF-induced EC cord formation: VEGF 15 ng/mL, 6 days, 0.5 µM (Sunitinib 1 μM); for effect on VEGF-induced cord length, different concentrations: dose range
Description: The cord formation assay was performed according to the IncuCyte Angiogenesis PrimeKit Assay protocol (Cell Player Angiogenesis PrimeKit, Essen BioScience). In brief, GFP labeled HUVEC cells and human dermal fibroblasts were mixed in a 1:20 ratio and seeded per well in a 96-well plate (3150 cells in total). Thereafter, the cells were exposed to VEGF alone or in combination with the compounds (at indicated concentrations) in a complete assay medium. Pictures were captured every 6 h for up to 9 days To monitor the cord formation. The medium was refreshed every 2 or 3 days. Cords formation was visualized by the GFP fluorescence, and cord length was quantified with the instrument’s software. All the experiments were repeated at least three times, and representative experiments are shown.

EA.hy926 cells [1] = assay: Proliferation assay (IncuCyte confluence); assay type: cell-based, human; details: 0.5 µM, 3 days
Description: Around 4 × 10^3 EA.hy926 cells per well were seeded in a 96-well microplate Essen ImageLock™ in 200 µL of culture medium containing the indicated concentrations of compounds and ligands, and the plate was directly inserted into the IncuCyte ZOOM instrument for scanning. Images of each well were acquired every 4 h for 3 days. The real-time cell confluence in each well was analyzed after normalizing to the initial cell density. All the experiments were repeated at least three times, and representative results are shown.

[2] = tested on: TGF-β2-induced SMAD2 phosphorylation; assay: Western blot of TGF-β2-induced SMAD2 phosphorylation in EA.hy926 cells; assay type: cell-based, human; details: TGF-β2 1 ng/mL
Description: EA.hy926 cells or HUVECs were seeded in 6-well plates and starved in a serum-free medium for 4 h after reaching 80% confluence. The compounds were added 30 min prior to stimulation with the corresponding ligands. EA.hy926 cells were incubated with BMP9 (1 ng/mL), BMP6 (50 ng/mL), TGF-β2 (1 ng/mL), or vehicle control for 1 h. For HUVECs, after 4 h starvation, the cells were pre-treated with or without the indicated compounds for 30 min and subsequently stimulated with VEGF (40 ng/mL) for 10 min. The cells were harvested and lysed in radioimmunoprecipitation assay (RIPA) lysis buffer containing 1× complete protease inhibitor cocktail (11836153001, Roche, Basel, Switzerland). The protein concentration was determined using the DC protein assay kit (5000111, Bio-Rad). After adding loading buffer, the samples were boiled and proteins separated by sodium dodecyl sulfate polyacrylamide gel electrophoresis (SDS-PAGE). Proteins in the gel were transferred to polyvinylidene difluoride (PVDF) membranes (IPVH00010, Merck Millipore, Burlington, MA, USA) and immunoblotted with 1000 times diluted primary antibodies: phospho-SMAD1/5 (9516 S, Cell Signaling Technology, Leiden, The Netherlands), phospho-SMAD2 (pSMAD2, home-made), SMAD1 (6944 S, Cell Signaling Technology), SMAD2 (3103 S, Cell Signaling Technology), phospho-extracellular signal-regulated kinase/mitogen-activated protein kinase (pERK/MAPK, 4370, Cell Signaling Technology), mitogen-activated protein kinase/ERK1/2 (ERK1/2/MAPK, 9102 S, Cell Signaling Techonol), VEGFR (2479, Cell Signaling), pVEGFR (2478, Cell Signaling Technology), α/β-Tubulin (2148, Cell Signaling Technology), glyceraldehyde 3-phosphate dehydrogenase (GAPDH, MAB374, Merck Millipore). Clarity™ enhanced chemiluminescence (ECL) reagent (1705060, Bio-Rad) was used to visualize secondary antibodies conjugated to horseradish peroxidase (HRP). GAPDH or Tubulin was used as protein loading controls. […] The protein bands were quantified using ImageJ (National Institutes of Health, Bethesda, MD, USA).

EA.hy926 cells [3] = assay: Scratch wound migration assay; assay type: cell-based, human; details: 0.5 µM, 24 h; for effect on FBS-induced EC migration: 1% FBS; for effect on BMP9-induced EC migration: BMP9 1 ng/mL; for effect on VEGF-induced EC migration: VEGF 15 ng/mL
Description: Approximately 5 × 10^4 EA.hy926 cells/well were seeded in a 96-well microplate Essen ImageLock™ (4379, Essen Bioscience, Ann Arbor, MI, USA) and cultured overnight. Then homogeneous 700–800 micron-wide scratch wounds were made using a WoundMaker™ device (4563, Essen Bioscience, Ann Arbor, MI, USA) containing 96 pins. The compounds and/or ligands were added to each well in 100 µL of fresh serum-free medium. Each group contained 6 replicates. Real-time pictures were acquired every 4 h by the IncuCyte ZOOM (Essen Bioscience) to track the wound closure. The wound density was analyzed using the software package provided by the manufacturer and normalized to the wound width at the start of the experiment. All the experiments were repeated at least three times, and representative results are shown.

[4] = tested on: VEGF-induced DLL4 and NR4 A1 mRNA expression; assay: RT-qPCR of VEGF-induced DLL4 and NR4A1 mRNA in HUVECs; assay type: cell-based, human; details: 0.5 µM compound, VEGF 40 ng/mL
Description: EA.hy926 cells or HUVECs were seeded in 6-well plates and cultured until they reached 80% confluence. The medium was replaced with a serum-free medium for a 4 h starvation. For EA.hy926 cells, the compounds were added at a final concentration of 0.5 μM for 30 min, followed by BMP9 (1 ng/mL), TGF-β2 (1 ng/mL), or vehicle control addition and cultured for another 3 h before the cells were harvested. To investigate VEGF-induced cellular response, HUVECs were exposed to VEGF (40 ng/mL) for 1 h after 30 min pre-treatment with the compounds.
After samples were collected, total RNA was isolated and purified using the NucleoSpin RNA II kit (740955, BIOKE, Leiden, the Netherlands), following the manufacturer’s instructions. Then, the mRNA was used as a template to synthesize cDNA by performing reverse transcription with the RevertAid First Strand cDNA Synthesis Kit (K1621, ThermoFisher Scientific). Gene expression levels were determined by RT-qPCR analysis using the GoTaq qPCR Master Mix (A6001, Promega, Madison, WI, USA) and normalized to GAPDH expression. All the experiments were repeated three times, and results from three biologically independent experiments are shown.

Row | SMILES | effect on VEGF-induced EC cord formation (HUVECs) | effect on EC proliferation (real-time confluence) (EA.hy926 cells [1]) | effect on TGF-β2-induced SMAD2 phosphorylation ([2]; 0.1 µM compound) | effect on FBS-induced EC migration (EA.hy926 cells [3]) | effect on BMP9-induced EC migration (EA.hy926 cells [3]) | effect on VEGF-induced EC migration (EA.hy926 cells [3]) | effect on VEGF-induced cord length, different concentrations (HUVECs; VEGF 20 ng/mL, 9 days) | effect on VEGF-induced DLL4 mRNA expression [4] | effect on VEGF-induced NR4 A1 mRNA expression [4] | effect on VEGF-induced cord formation at 0.5 μM (HUVECs; VEGF 20 ng/mL, 9 days, 0.5 μM) | effect on TGF-β2-induced SMAD2 phosphorylation ([2]; dose range) | effect on VEGF-induced cord formation at 0.1 μM (HUVECs; VEGF 20 ng/mL, 9 days, 0.1 μM)
1 | c1ccc2c(-c3cnn4cc(-c5ccc(N6CCNCC6)cc5)cnc34)ccnc2c1 [LDN-193189, reference compound] | no inhibitory effect and even slightly enhanced | strongly inhibited | effectively attenuated | did not affect | significantly inhibited | no inhibitory effect |  |  |  |  |  | 
2 | CNC(=O)c1ccccc1Sc1ccc2c(/C=C/c3ccccn3)n[nH]c2c1 [Axitinib, reference compound] |  |  |  |  |  |  | potently inhibited | inhibited | inhibited |  |  | 
3 | CN1CCc2cccc(c2)Nc2nccc(n2)N2CCCc3cc(ccc32)C1 [OD16] | antagonized | LDN-193189 strongly inhibited ECs proliferation, unlike OD16 and OD29 |  | did not affect | significantly inhibited | antagonized | antagonized in a dose-dependent manner | did inhibit |  | apparent inhibitory effects | in a dose-dependent manner but far less efficiently than LDN-193189 | 
4 | CN1CCC(=O)NCCNc2ccn3ncc(c3n2)-c2cccc(c2)C1 [OD29] | antagonized | LDN-193189 strongly inhibited ECs proliferation, unlike OD16 and OD29 |  | effective in suppressing | significantly inhibited | antagonized | antagonized in a dose-dependent manner | inhibited | inhibited |  | nearly no inhibitory effect | effectively attenuated
